The values that follow come from patent publication US8158577B2, “Modulation of cartilage homeostasis by active domains of cell binding extracellular matrix molecules” (priority 2004, dated 2012).

Test [1] deals with K105 cells. In words: Adhesion of K105 cells to chondroadherin in the presence of synthetic peptide (FIG. 3, 5A-5B, 13). In kind it is cell-based, human. The conditions noted are these: peptide 250 μg/ml. The method, then: Human cells (K9) originating from a human chondrosarcoma were a kind gift from Drs. Sven Inerot and Anders Lindahl, The Salgrenska University Hospital Gothenburg, Sweden. The K9 cells were cultured in Dulbeccos Modified Eagle Medium: Nutrient Mixture F12 (DMEM/F12 1:1) with GLUTAMAX I, supplemented with 10% fetal calf serum, 25 μg/ml ascorbic acid, 50 IU of penicillin and 50 μg/ml streptomycin (Life Technologies, Inc.). A different human cells line (K105) originating from a human chondrosarcoma was a kind gift from Dr. Sven Inerot, The Salgrenska University Hospital, Gothenburg, Sweden. The K105 cells were cultured in a mix of 40% Dulbeccos Modified Eagle Medium, 40% Minimum Essential Media (MEM) alpha Medium, 10% Nutrient Mixture F1 supplemented with 100 nM hydrocortisone, 100 ng/ml insulin, 10% fetal calf serum, 25 μg/ml ascorbic acid, 50 IU of penicillin and 50 μg/ml streptomycin (Life Technologies, Inc.). To harvest cells, culture dishes were rinsed three times with Ca^2+/Mg^2+-free PBS and the cells were incubated with 0.5% trypsin and 1 mM EDTA for 5 min. Detached cells were suspended in PBS containing 1 mg/ml trypsin inhibitor (Sigma) and then washed in PBS. To remove membrane-bound collagens the cells were treated with collagenase 100 U/ml (CLSPA; Worthington Biochemical Corp., Lakewood, N.J.) in PBS, 30 min. 37° C. and then washed in PBS.
Tissue culture 48-wells dishes (Nunclon, Nunc, Denmark) were coated overnight with 5 μg/ml chondroadherin in 4M Guanidine-HCl, 50 mM sodium acetate, pH 5.8, or for native protein in PBS. Alternatively coating was with 5 μg/ml collagen type II in PBS followed by after-coating with 0.5% BSA in PBS for 3 hours. Collagen type II was isolated from bovine nasal cartilage by pepsin digestion (11). Bacterially expressed chondroadherin was isolated as described above. Recombinant chondroadherin expressed in EBNA cell was cloned and purified as described elsewhere (8).
To test cell binding, the chondrosarcoma cells or bovine chondrocytes were suspended in PBS containing 0.1% BSA, 25 U/ml collagenase and added to the wells (50,000/well), in the absence or presence of various peptide pools or the synthetic peptides (200, 100, 50, 25, 12.5 μg/ml). Non-adherent cells were removed after 1 hour and adhesion was determined by measuring lysosomal N-acetylglucosaminidase (12). Adhesion and spreading was visualized by light microscopy. In the time studies, k105 cells were allowed to adhere for 30 minutes, unbound cells were removed and medium without serum supplemented with or without peptides (250 μg/ml), β1 integrin antibody (clone P4C10, Gibco BRL), EDTA (5 mM) was added. Cell morphology was visualized by light microscopy after 1, 3 and 20 hours.
Study design: Tissue culture dishes (48-wells) were coated with 5 μg/ml chondroadherin expressed in E. coli and blocked for non-specific binding with BSA. […] were suspended in PBS containing 0.1% BSA, 25 U/ml collagenase and added to the wells (50,000/well) in the presence of synthetic peptide to be tested and allowed to adhere for 1 hour at 37° C. Nonadherent cells were removed by washing, and adhesion was determined by analyzing lysosomal hexosaminidase.
A 12-mer peptide (1947.01) plus an N-terminal cysteine (CQLRGLRRWLEAK) (SEQ ID NO. 3) representing the candidate sequence identified by mass spectrometry were synthesized and its ability to inhibit cell adhesion was determined. Tissue culture dishes were coated with 5 μg/ml chondroadherin expressed in E. coli and blocked for non-specific binding with BSA. The cells were suspended in PBS containing 0.1% BSA, 25 U/ml collagenase and added to the wells (50,000/well) in the presence of synthetic peptide (200, 100, 50, 25, 12.5 μg/ml) and allowed to adhere for 1 hour at 37° C. Nonadherent cells were removed by washing, and adhesion was determined by analyzing lysosomal hexosaminidase. […]

A short description of test [2]: Heparin binding on Heparin-Sepharose. Conditions: eluted with NaCl (0.5, 1, 2M); Western blot or MALDI-TOF MS. The method, then: Intact recombinant protein (10 μg, EBNA-cell expressed) diluted in PBS was passed over Heparin-Sepharose (Amersham Pharmacia) (1 ml), washed with 20 volumes of PBS and eluted with 2 M NaCl (6×1 ml). Eluted material was precipitated with ethanol, separated by SDS-PAGE (10%) and visualized by western blot (CHAD ab α-80, Larsson et al). The peptide CKFPTKRSKKAGRH (SEQ ID No:7) was diluted in PBS and passed over heparin-sepharose (100 μl), the column was washed with 20 volumes PBS and bound material eluted with 0.5, 1, and 2M NaCl (3 column volumes of each).
Recombinant chondroadherin (10 or 100 μg) expressed in EBNA-cells was passed over Heparin-Sepharose-column (Pharmacia). The column was washed and eluted with 2M NaCl in PBS. Eluted material was separated on SDS-PAGE (10%) and detected by western blot using a chondroadherin antibody (see FIG. 4). The band at 36 kDa represents chondroadherin ant the band at 72 kDa represents a dimer of chondroadherin.
The candidate peptide CKFPTKRSKKAGRH (SEQ ID No: 7) was synthesized. The ability of the peptide to bind heparin was confirmed on heparin-sepharose, where material eluted with 0.5, 1 and 2M NaCl was identified by MALDI-TOF MS (data not shown).
In general terms: Immunoblotting shows a protein as a band on a membrane.

The subject of test [3] is K105 cells. Nature of the test: Adhesion of K105 cells to the coated cell binding peptides (FIG. 8). In kind it is cell-based, human. The method, then: Tissue culture dishes were coated with 33 μg/ml (20 µM) peptide solution. The cells (50,000/well) were suspended in PBS containing 0.1% BSA, 25 U/ml collagenase and added to the wells in the presence or absence of synthetic peptide (250 μg/ml) and allowed to adhere for 1 hour at 37° C. Nonadherent cells were removed by washing. Spreading was visualized by light microscopy.

The subject of a further test is bovine chondrocytes. Nature of the test: Adhesion of bovine chondrocytes to human chondroadherin with or without cell binding peptides (FIG. 6). In kind it is cell-based. The conditions noted are these: peptide 250 μg/ml, 1 hour at 37° C., 100,000 cells/well. The method, then:
Bovine chondrocytes were isolated by collagenase (CLS1; Worthington Biochemical Corp., Lakewood, N.J.) digestion of articular cartilage from 4-6 month old calves as described (10). Briefly, cartilage slices were digested for 16 hours with collagenase in EBSS (Earle's balanced salt solution, GIBCO BRL Gaithersburg, Md.). The cells were filtered through a 100 μm nylon filter, washed three times in PBS containing 0.2% BSA (SERVA).
To test cell binding, the chondrosarcoma cells or bovine chondrocytes were suspended in PBS containing 0.1% BSA, 25 U/ml collagenase and added to the wells (50,000/well), in the absence or presence of various peptide pools or the synthetic peptides (200, 100, 50, 25, 12.5 μg/ml). Non-adherent cells were removed after 1 hour and adhesion was determined by measuring lysosomal N-acetylglucosaminidase (12). Adhesion and spreading was visualized by light microscopy. […]
Tissue culture dishes were coated with 5 μg/ml chondroadherin expressed in E. coli or collagen type II and blocked for non-specific binding with BSA. […] Adhesion was determined by analyzing lysosomal hexosaminidase. Adhesion is expressed as number of cells, 100,000 cells/well was seeded. […]

“Also recorded” adds a separate entry of the source.

As to H-CKFPTKRSKKAGRH-OH [SEQ ID No. 7], in the test with K105 cells [1] (1 hour at 37° C.), the “k105 cell adhesion to chondroadherin in the presence of peptide” value is recorded as “increased”. For the same substance, the “k105 cell spreading on chondroadherin in the presence of peptide” value in the test with K105 cells [1] (1 hour, light microscopy) is listed as “increased”. Also, the binding to heparin-sepharose entry in test [2] is “confirmed; also recorded: bind heparin”. In addition, the “adhesion and shape of k105 cells plated on the peptide” value in the test on K105 cells [3] (dishes coated with 33 μg/ml peptide, 1 hour at 37° C.) is “adhere and spread”. In the test on K105 cells [3] (peptide in solution 250 μg/ml), the “inhibition of k105 adhesion to the coated peptide by the same peptide in solution” value was “unable to inhibit adhesion”. Further, the “bovine chondrocyte adhesion to chondroadherin in the presence of peptide” value in the test on bovine chondrocytes is reported as “increased”.
